Target: T1, DβH (Homo sapiens, UniProt P09172)
T1 construct: reaction mixture (total volume 500 μl) contained: cellular homogenate (75 μg total protein); host or cells: SK-N-SH cell homogenate
T1 sequence (P09172 1-617): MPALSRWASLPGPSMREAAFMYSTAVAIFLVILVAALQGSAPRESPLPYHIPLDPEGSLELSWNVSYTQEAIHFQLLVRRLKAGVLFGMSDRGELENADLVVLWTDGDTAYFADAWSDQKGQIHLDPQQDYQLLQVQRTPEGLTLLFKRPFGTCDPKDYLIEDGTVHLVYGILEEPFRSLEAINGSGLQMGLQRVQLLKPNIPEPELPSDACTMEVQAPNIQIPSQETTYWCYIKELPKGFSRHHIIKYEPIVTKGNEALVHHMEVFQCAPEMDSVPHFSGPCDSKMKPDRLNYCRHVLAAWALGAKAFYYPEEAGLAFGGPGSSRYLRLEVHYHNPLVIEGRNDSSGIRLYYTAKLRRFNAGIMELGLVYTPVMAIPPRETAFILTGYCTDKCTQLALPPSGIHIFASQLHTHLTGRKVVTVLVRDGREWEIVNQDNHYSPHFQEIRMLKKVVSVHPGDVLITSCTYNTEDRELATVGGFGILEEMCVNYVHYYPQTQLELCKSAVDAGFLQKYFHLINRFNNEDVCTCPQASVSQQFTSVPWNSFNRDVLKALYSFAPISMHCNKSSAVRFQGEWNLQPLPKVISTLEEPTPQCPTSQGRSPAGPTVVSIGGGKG
Assay: DβH inhibition cell assay (SK-N-SH cellular homogenates, tyramine to octopamine)
Format: biochemical
Conditions: SK-N-SH cell homogenate; for remaining activity at 10 µM: inhibitor 10 μM, read-out: DβH activity in % of Ctrl (10 μM); for remaining activity at 1 µM: inhibitor 1 μM, read-out: DβH activity in % of Ctrl (1 μM); for remaining activity at 0.1 µM: inhibitor 0.1 μM, read-out: DβH activity in % of Ctrl (0.1 μM)
Experimental: The ability of a compound to inhibit DβH activity may be assessed using the following cell assay. […] . […] Fetal bovine serum was removed from cells for 4 h prior to collection.
For the preparation of cellular homogenates, media was removed and cell monolayers were washed with 50 mM Tris-HCl pH 7.4. Cells were subsequently scrapped off the flasks and were resuspended in 50 mM Tris pH 7.4. Cell suspensions were homogenized with SilentCrusher M (Heidolph) for a short stroke and resultant homogenates were aliquoted and stored frozen at −80° C.
Total protein was quantified in cellular homogenates with BioRad Protein Assay (BioRad) using a standard curve of BSA (50-250 μg/mL).
DβH activity was measured by a modification of the method of Nagatsu and Udenfriend (Nagatsu, T. and S. Udenfriend: “Photometric assay of dopamine-hydroxylase activity in human blood.” Clin. Chem. 18(9): 980-3, 1972) which is based on the enzymatic hydroxylation of tyramine into octopamine. The octopamine formed is subsequently oxidized to p-hydroxybenzaldehyde and measured by spectrophotometry. In brief, reaction mixture (total volume 500 μl) contained: cellular homogenate (75 μg total protein) sodium acetate pH 5.0 (200 mM), NEM (30 mM), CuSO4 (5 μM), catalase aqueous solution (0.5 mg/mL), pargyline-HCl (1 mM), sodium fumarate (10 mM), ascorbic acid (10 mM), inhibitor or vehicle and tyramine (25 mM). After a 10 min pre-incubation period at 37° C., the reaction was initiated by the addition of tyramine. Reaction was carried out for 45 min at 37° C. before termination with 50 μl PCA (2 M).
Samples were centrifuged for 3 min at 16100 g and supernatants were subjected to solid phase extraction. Solid phase extraction was performed using either SPE cartridges ISOLUTE SCX-3 (100 mg, 1 mL) or SPE 2 mL fixed 96 well plates ISOLUTE SCX-3 (100 mg) previously equilibrated with MilliQ water. Columns/plates were centrifuged at 150 g for 2 min. Eluate was discarded and matrix was washed with 1 mL of MilliQ water after which octopamine was eluted with 2×0.25 mL ammonium hydroxide (4 M). The oxidation of octopamine to p-hydroxybenzaldehyde was carried out for 6 min with 100 μl sodium periodate (2%) and was stopped with 100 μl sodium metabisulfite (10%). Absorbance was measured at 330 nm on a Spectramax microplate reader (Molecular Devices, Sunnyvale, Calif.). All enzymatic reactions were performed in duplicate. Results are reported in the table below as activity in % of control at the inhibitor concentration tested.

remaining activity at 10 µM | remaining activity at 1 µM | remaining activity at 0.1 µM | Compound
18.6% |  |  | NC(=S)N1CCCC(c2ccccc2)C1 (stereo not shown) [Example 4, 3-phenylpiperidine-1-carbothioamide]
 | 36.1% |  | Fc1cccc([C@@]23C[C@@H]2c2c[nH]c(=S)n2C3)c1F [Example 67, (5aR,6aS)-5a-(2,3-difluorophenyl)-5,5a,6,6a-tetrahydrocyclopropa[3,4]pyrrolo[1,2-c]imidazole-3(2H)-thione]
 | 0% | 32% | [2H]C1([2H])C2([2H])c3c[nH]c(=S)n3CC12c1cc(Cl)ccc1F (stereo not shown) [Example 102, 5a-(5-chloro-2-fluorophenyl)-5,5a,6,6a-tetrahydrocyclopropa[3,4]pyrrolo[1,2-c]imidazole-3(2H)-thione-6,6,6a-d3]
 | 33.4% |  | NC(=S)N1CCC(c2cc(F)c(F)cc2F)C1 (stereo not shown) [Example 19, 3-(2,4,5-trifluorophenyl)pyrrolidine-1-carbothioamide]
0.8% |  | 83.2% | NC(=S)N1CCC(c2ccc(F)cc2F)C1 (stereo not shown) [Example 5, 3-(2,4-difluorophenyl)pyrrolidine-1-carbothioamide]
 | 10.9% |  | Cc1[nH]c(=S)n2c1[C@@H]1C[C@]1(c1cc(F)ccc1F)C2 [Example 78, (5aS,6aR)-5a-(2,5-difluorophenyl)-1-methyl-5,5a,6,6a-tetrahydrocyclopropa[3,4]pyrrolo[1,2-c]imidazole-3 (2H)-thione]
1.5% | 31.4% | 86.4% | NC(=S)N1CC[C@H](c2ccccc2)C1 [Example 11, (R)-3-phenylpyrrolidine-1-carbothioamide]
 | 0% | 0% | [2H]C([2H])([2H])c1[nH]c(=S)n2c1[C@@H]1C[C@]1(c1cc(Cl)ccc1F)C2 [Example 100, (5aS,6aR)-5a-(5-chloro-2-fluorophenyl)-1-(methyl-d3)-5,5a,6,6a-tetrahydrocyclopropa[3,4]pyrrolo[1,2-c]imidazole-3 (2H)-thione]
 | 44.8% |  | NC(=S)N1CCC(c2ccc(F)c(F)c2)C1 (stereo not shown) [Example 20, 3-(3,4-difluorophenyl)pyrrolidine-1-carbothioamide]
 |  | 26.9% | NC(=S)N1CCC(c2c(F)c(F)c(F)c(F)c2F)C1 (stereo not shown) [Example 29, 3-(perfluorophenyl)pyrrolidine-1-carbothioamide]
 | 8.4% | 52.2% | Fc1cc(F)c(F)c([C@@H]2Cc3c[nH]c(=S)n3C2)c1F [Example 61, (S)-6-(2,3,5,6-tetrafluorophenyl)-6,7-dihydro-2H-pyrrolo[1,2-c]imidazole-3(5H)-thione]
 | 55.5% |  | NC(=S)N1CCC(c2ccoc2)C1 (stereo not shown) [Example 16, 3-(furan-3-yl)pyrrolidine-1-carbothioamide]
 | 6.2% | 45.8% | Fc1ccc(Cl)c(F)c1[C@]12C[C@H]1c1n[nH]c(=S)n1C2 [Example 88, (5aS,6aR)-5a-(3-chloro-2,6-difluorophenyl)-5,5a,6,6a-tetrahydrocyclopropa[3,4]pyrrolo[2,1-c][1,2,4]triazole-3(2H)-thione]
 | 0% | 25.3% | Fc1ccc(Cl)c(F)c1[C@H]1Cc2c[nH]c(=S)n2C1 [Example 86, (R)-6-(3-chloro-2,6-difluorophenyl)-2,5,6,7-tetrahydro-3H-pyrrolo[1,2-c]imidazole-3-thione]
 | 60.2% |  | Fc1cc(F)cc([C@]23C[C@H]2c2n[nH]c(=S)n2C3)c1 [Example 60, (5aS,6aR)-5a-(3,5-difluorophenyl)-5,5a,6,6a-tetrahydrocyclopropa[3,4]pyrrolo[2,1-c][1,2,4]triazole-3(2H)-thione]
 | 43% |  | CNC(=S)N1C=CC(c2cc(F)cc(F)c2)C1 (stereo not shown) [Example 48, 3-(3,5-Difluorophenyl)-N-methyl-2,3-dihydro-1H-pyrrole-1-carbothioamide]
 | 23% |  | Fc1cc(F)cc([C@]23C[C@H]2c2cn(C4CC4)c(=S)n2C3)c1 [Example 77, (5aS,6aR)-2-cyclopropyl-5 a-(3,5-difluorophenyl)-5,5a,6,6a-tetrahydrocyclopropa[3,4]pyrrolo[1,2-c]imidazole-3 (2H)-thione]
 | 35.7% |  | Fc1ccc([C@]23C[C@H]2c2c[nH]c(=S)n2C3)c(F)c1 [Example 70, (5aS,6aR)-5a-(2,4-difluorophenyl)-5,5a,6,6a-tetrahydrocyclopropa[3,4]pyrrolo[1,2-c]imidazole-3(2H)-thione]
 | 4.5% | 49.1% | Fc1ccc(Br)c(F)c1[C@]12C[C@H]1c1n[nH]c(=S)n1C2 [Example 119, (5aS,6aR)-5a-(3-bromo-2,6-difluorophenyl)-5,5a,6,6a-tetrahydrocyclopropa[3,4]pyrrolo[2,1-c][1,2,4]triazole-3(2H)-thione]
 | 13% |  | Cc1[nH]c(=S)n2c1[C@@H]1C[C@]1(c1cc(F)cc(F)c1)C2 [Example 79, (5aS,6aR)-5a-(3,5-difluorophenyl)-1-methyl-5,5a,6,6a-tetrahydrocyclopropa[3,4]pyrrolo[1,2-c]imidazole-3 (2H)-thione]
 | 54.7% |  | C[C@@H]1c2c[nH]c(=S)n2C[C@H]1c1c(F)c(F)cc(F)c1F [Example 107, (6R,7S)-7-methyl-6-(2,3,5,6-tetrafluorophenyl)-2,5,6,7-tetrahydro-3H-pyrrolo[1,2-c]imidazole-3-thione]
 | 1% | 11.8% | CNC(=S)N1CCC(c2c(F)c(F)cc(F)c2F)C1 (stereo not shown) [Example 33, N-methyl-3-(2,3,5,6-tetrafluorophenyl)pyrrolidine-1-carbothioamide]
3.3% | 50.3% | 97.6% | NC(=S)N1CC[C@@H](c2ccccc2)C1 [Example 6, (S)-3-phenylpyrrolidine-1-carbothioamide]
 | 0% | 6.4% | Fc1ccc(Br)c(F)c1[C@@H]1Cc2c[nH]c(=S)n2C1 [Example 117, (S)-6-(3-bromo-2,6-difluorophenyl)-2,5,6,7-tetrahydro-3H-pyrrolo[1,2-c]imidazole-3-thione]
 | 0% | 36.5% | Fc1cccc(F)c1[C@H]1Cc2c[nH]c(=S)n2C1 [Example 87, (R)-6-(2,6-difluorophenyl)-2,5,6,7-tetrahydro-3H-pyrrolo[1,2-c]imidazole-3-thione]
 | 15.9% | 73.8% | Fc1ccc(Cl)cc1[C@@]12C[C@@H]1c1c[nH]c(=S)n1C2 [Example 110, (5aR,6aS)-5a-(5-chloro-2-fluorophenyl)-5,5a,6,6a-tetrahydrocyclopropa[3,4]pyrrolo[1,2-c]imidazole-3 (2H)-thione]

Compound | remaining activity at 10 µM | remaining activity at 1 µM | remaining activity at 0.1 µM
CNC(=S)N1C[C@@]2(c3cc(F)cc(F)c3)C[C@H]2C1=O [Example 41, (1S,5R)-1-(3,5-difluorophenyl)-N-methyl-4-oxo-3-azabicyclo[3.1.0]hexane-3-carbothioamide] |  | 0% | 29.8%
